Experimental data published in ChEMBL document CHEMBL3352542, “Synthesis, biological evaluation and molecular modeling study of 2-(1,3,4-thiadiazolyl-thio and 4-methyl-thiazolyl-thio)-quinazolin-4-ones as a new class of DHFR inhibitors” (Bioorg Med Chem Lett, 2014).
Calls of active or inactive are those of the source. The calls are words filed in the database; no cut-off is given here.

Tests used:
[1] = biological target: T1, Dihydrofolate reductase (Bos taurus, UniProt P00376); experiment: Inhibition of bovine liver DHFR
T1 sequence (P00376 whole entry): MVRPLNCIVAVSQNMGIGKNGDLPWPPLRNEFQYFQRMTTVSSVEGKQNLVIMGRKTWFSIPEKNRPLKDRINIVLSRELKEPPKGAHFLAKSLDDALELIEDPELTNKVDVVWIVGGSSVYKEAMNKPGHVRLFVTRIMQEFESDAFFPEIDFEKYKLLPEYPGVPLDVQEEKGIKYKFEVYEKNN

[2] = test system: Staphylococcus aureus; experiment: Antimicrobial activity against Staphylococcus aureus assessed as inhibition zone at 200 ug/disk after 24 hrs by disc-diffusion method; assay type: functional; settings: read-out: IZ
[3] = test system: Bacillus subtilis; experiment: Antimicrobial activity against Bacillus subtilis assessed as inhibition zone at 200 ug/disk after 24 hrs by disc-diffusion method; assay type: functional; settings: read-out: IZ
[4] = test system: Escherichia coli; experiment: Antimicrobial activity against Escherichia coli assessed as inhibition zone at 200 ug/disk after 24 hrs by disc-diffusion method; assay type: functional; settings: read-out: IZ
[5] = test system: Pseudomonas aeruginosa; experiment: Antimicrobial activity against Pseudomonas aeruginosa assessed as inhibition zone at 200 ug/disk after 24 hrs by disc-diffusion method; assay type: functional; settings: read-out: IZ
[6] = test system: Candida albicans; experiment: Antimicrobial activity against Candida albicans assessed as inhibition zone at 200 ug/disk after 24 hrs by disc-diffusion method; assay type: functional; settings: read-out: IZ
[7] = test system: Staphylococcus aureus; experiment: Antimicrobial activity against Staphylococcus aureus assessed as inhibition of visible growth after 24 hrs by disc-diffusion method; assay type: functional, organism-based
[8] = test system: Bacillus subtilis; experiment: Antimicrobial activity against Bacillus subtilis assessed as inhibition of visible growth after 24 hrs by disc-diffusion method; assay type: functional, organism-based
[9] = test system: CCRF-CEM; experiment: Growth inhibition of human CCRF-CEM cells at 10 uM after 48 hrs; assay type: functional
[10] = test system: HL-60(TB); experiment: Growth inhibition of human HL-60(TB) cells at 10 uM after 48 hrs; assay type: functional
[11] = test system: K562; experiment: Growth inhibition of human K562 cells at 10 uM after 48 hrs; assay type: functional
[12] = test system: MOLT-4; experiment: Growth inhibition of human MOLT4 cells at 10 uM after 48 hrs; assay type: functional
[13] = test system: RPMI-8226; experiment: Growth inhibition of human RPMI8226 cells at 10 uM after 48 hrs; assay type: functional
[14] = test system: SR; experiment: Growth inhibition of human SR cells at 10 uM after 48 hrs; assay type: functional
[15] = test system: A549; experiment: Growth inhibition of human A549 cells at 10 uM after 48 hrs; assay type: functional
[16] = test system: HOP-92; experiment: Growth inhibition of human HOP92 cells at 10 uM after 48 hrs; assay type: functional
[17] = test system: NCI-H226; experiment: Growth inhibition of human NCI-H226 cells at 10 uM after 48 hrs; assay type: functional
[18] = test system: NCI-H23; experiment: Growth inhibition of human NCI-H23 cells at 10 uM after 48 hrs; assay type: functional
[19] = test system: NCI-H460; experiment: Growth inhibition of human NCI-H460 cells at 10 uM after 48 hrs; assay type: functional
[20] = test system: NCI-H522; experiment: Growth inhibition of human NCI-H522 cells at 10 uM after 48 hrs; assay type: functional
[21] = test system: COLO 205; experiment: Growth inhibition of human COLO205 cells at 10 uM after 48 hrs; assay type: functional
[22] = test system: HCC 2998; experiment: Growth inhibition of human HCC2998 cells at 10 uM after 48 hrs; assay type: functional
[23] = test system: HCT-116; experiment: Growth inhibition of human HCT116 cells at 10 uM after 48 hrs; assay type: functional
[24] = test system: HCT-15; experiment: Growth inhibition of human HCT15 cells at 10 uM after 48 hrs; assay type: functional
[25] = test system: HT-29; experiment: Growth inhibition of human HT-29 cells at 10 uM after 48 hrs; assay type: functional
[26] = test system: KM12; experiment: Growth inhibition of human KM12 cells at 10 uM after 48 hrs; assay type: functional
[27] = test system: SW-620; experiment: Growth inhibition of human SW620 cells at 10 uM after 48 hrs; assay type: functional
[28] = test system: SF-268; experiment: Growth inhibition of human SF268 cells at 10 uM after 48 hrs; assay type: functional
[29] = test system: SF-295; experiment: Growth inhibition of human SF295 cells at 10 uM after 48 hrs; assay type: functional
[30] = test system: SF-539; experiment: Growth inhibition of human SF539 cells at 10 uM after 48 hrs; assay type: functional
[31] = test system: SNB-19; experiment: Growth inhibition of human SNB19 cells at 10 uM after 48 hrs; assay type: functional
[32] = test system: SNB-75; experiment: Growth inhibition of human SNB75 cells at 10 uM after 48 hrs; assay type: functional
[33] = test system: U-251; experiment: Growth inhibition of human U251 cells at 10 uM after 48 hrs; assay type: functional
[34] = test system: LOX IMVI; experiment: Growth inhibition of human LOXIMVI cells at 10 uM after 48 hrs; assay type: functional
[35] = test system: Malme-3M; experiment: Growth inhibition of human MALME-3M cells at 10 uM after 48 hrs; assay type: functional
[36] = test system: M14; experiment: Growth inhibition of human M14 cells at 10 uM after 48 hrs; assay type: functional
[37] = test system: MDA-MB-435; experiment: Growth inhibition of human MDA-MB-435 cells at 10 uM after 48 hrs; assay type: functional
[38] = test system: SK-MEL-5; experiment: Growth inhibition of human SK-MEL-5 cells at 10 uM after 48 hrs; assay type: functional
[39] = test system: UACC-257; experiment: Growth inhibition of human UACC257 cells at 10 uM after 48 hrs; assay type: functional
[40] = test system: UACC-62; experiment: Growth inhibition of human UACC62 cells at 10 uM after 48 hrs; assay type: functional
[41] = test system: OVCAR-3; experiment: Growth inhibition of human OVCAR3 cells at 10 uM after 48 hrs; assay type: functional
[42] = test system: OVCAR-4; experiment: Growth inhibition of human OVCAR4 cells at 10 uM after 48 hrs; assay type: functional
[43] = test system: OVCAR-5; experiment: Growth inhibition of human OVCAR5 cells at 10 uM after 48 hrs; assay type: functional
[44] = test system: OVCAR-8; experiment: Growth inhibition of human OVCAR8 cells at 10 uM after 48 hrs; assay type: functional
[45] = test system: NCI/ADR-RES; experiment: Growth inhibition of human NCI-ADR-RES cells at 10 uM after 48 hrs; assay type: functional
[46] = test system: 786-0; experiment: Growth inhibition of human 786-0 cells at 10 uM after 48 hrs; assay type: functional
[47] = test system: A498; experiment: Growth inhibition of human A498 cells at 10 uM after 48 hrs; assay type: functional
[48] = test system: ACHN; experiment: Growth inhibition of human ACHN cells at 10 uM after 48 hrs; assay type: functional
[49] = test system: CAKI-1; experiment: Growth inhibition of human CAKI-1 cells at 10 uM after 48 hrs; assay type: functional
[50] = test system: RXF 393; experiment: Growth inhibition of human RXF393 cells at 10 uM after 48 hrs; assay type: functional
[51] = test system: SN12C; experiment: Growth inhibition of human SN12C cells at 10 uM after 48 hrs; assay type: functional
[52] = test system: TK-10; experiment: Growth inhibition of human TK10 cells at 10 uM after 48 hrs; assay type: functional
[53] = test system: UO-31; experiment: Growth inhibition of human UO31 cells at 10 uM after 48 hrs; assay type: functional
[54] = test system: PC-3; experiment: Growth inhibition of human PC3 cells at 10 uM after 48 hrs; assay type: functional
[55] = test system: MCF7; experiment: Growth inhibition of human MCF7 cells at 10 uM after 48 hrs; assay type: functional
[56] = test system: MDA-MB-231; experiment: Growth inhibition of human MDA-MB-231 cells at 10 uM after 48 hrs; assay type: functional
[57] = test system: Hs-578T; experiment: Growth inhibition of human Hs 578T cells at 10 uM after 48 hrs; assay type: functional
[58] = test system: BT-549; experiment: Growth inhibition of human BT549 cells at 10 uM after 48 hrs; assay type: functional
[59] = test system: T47D; experiment: Growth inhibition of human T47D cells at 10 uM after 48 hrs; assay type: functional
[60] = test system: MDA-MB-468; experiment: Growth inhibition of human MDA-MB-468 cells at 10 uM after 48 hrs; assay type: functional

Cc1ccc(-n2c(Sc3sc(N)nc3C)nc3ccc(Cl)cc3c2=O)cc1
IC50 [1]: 5 µM | zone of inhibition at 200 µg/disc [2]: 18 mm | zone of inhibition at 200 µg/disc [3]: 16 mm | zone of inhibition at 200 µg/disc [4]: 8 mm | zone of inhibition at 200 µg/disc [5]: 8 mm | zone of inhibition at 200 µg/disc [6]: 8 mm | Activity [7]: Active | Activity [8]: Active | growth inhibition (GI) [9]: inactive | growth inhibition (GI) [10]: inactive | growth inhibition (GI) [11]: inactive | growth inhibition (GI) [12]: inactive | growth inhibition (GI) [13]: inactive | growth inhibition (GI) [14]: inactive | growth inhibition (GI) [15]: inactive | growth inhibition (GI) [16]: inactive | growth inhibition (GI) [17]: inactive | growth inhibition (GI) [18]: inactive | growth inhibition (GI) [19]: inactive | growth inhibition (GI) [20]: inactive | growth inhibition (GI) [21]: inactive | growth inhibition (GI) [22]: inactive | growth inhibition (GI) [23]: inactive | growth inhibition (GI) [24]: inactive | growth inhibition (GI) [25]: inactive | growth inhibition (GI) [26]: inactive | growth inhibition (GI) [27]: inactive | growth inhibition (GI) [28]: inactive | growth inhibition (GI) [29]: inactive | growth inhibition (GI) [30]: inactive | growth inhibition (GI) [31]: inactive | growth inhibition (GI) [32]: inactive | growth inhibition (GI) [33]: inactive | growth inhibition (GI) [34]: inactive | growth inhibition (GI) [35]: inactive | growth inhibition (GI) [36]: inactive | growth inhibition (GI) [37]: inactive | growth inhibition (GI) [38]: inactive | growth inhibition (GI) [39]: inactive | growth inhibition (GI) [40]: inactive | growth inhibition (GI) [41]: inactive | growth inhibition (GI) [42]: inactive | growth inhibition (GI) [43]: inactive | growth inhibition (GI) [44]: inactive | growth inhibition (GI) [45]: inactive | growth inhibition (GI) [46]: inactive | growth inhibition (GI) [47]: inactive | growth inhibition (GI) [48]: inactive | growth inhibition (GI) [49]: inactive | growth inhibition (GI) [50]: inactive | growth inhibition (GI) [51]: inactive | growth inhibition (GI) [52]: inactive | growth inhibition (GI) [53]: inactive | growth inhibition (GI) [54]: inactive | growth inhibition (GI) [55]: inactive | growth inhibition (GI) [56]: inactive | growth inhibition (GI) [57]: inactive | growth inhibition (GI) [58]: inactive | growth inhibition (GI) [59]: inactive | growth inhibition (GI) [60]: inactive

COc1cc2nc(Sc3sc(N)nc3C)n(Cc3ccccc3)c(=O)c2cc1OC
IC50 [1]: 6 µM | zone of inhibition at 200 µg/disc [2]: 20 mm | zone of inhibition at 200 µg/disc [3]: 24 mm | zone of inhibition at 200 µg/disc [4]: 8 mm | zone of inhibition at 200 µg/disc [5]: 8 mm | zone of inhibition at 200 µg/disc [6]: 8 mm | Activity [7]: Active | Activity [8]: Active | growth inhibition (GI) [9]: inactive | growth inhibition (GI) [10]: inactive | growth inhibition (GI) [11]: inactive | growth inhibition (GI) [12]: inactive | growth inhibition (GI) [13]: inactive | growth inhibition (GI) [14]: inactive | growth inhibition (GI) [15]: inactive | growth inhibition (GI) [16]: inactive | growth inhibition (GI) [17]: inactive | growth inhibition (GI) [18]: inactive | growth inhibition (GI) [19]: inactive | growth inhibition (GI) [20]: inactive | growth inhibition (GI) [21]: inactive | growth inhibition (GI) [22]: inactive | growth inhibition (GI) [23]: inactive | growth inhibition (GI) [24]: inactive | growth inhibition (GI) [25]: inactive | growth inhibition (GI) [26]: inactive | growth inhibition (GI) [27]: inactive | growth inhibition (GI) [28]: inactive | growth inhibition (GI) [29]: inactive | growth inhibition (GI) [30]: inactive | growth inhibition (GI) [31]: inactive | growth inhibition (GI) [32]: inactive | growth inhibition (GI) [33]: inactive | growth inhibition (GI) [34]: inactive | growth inhibition (GI) [35]: inactive | growth inhibition (GI) [36]: inactive | growth inhibition (GI) [37]: inactive | growth inhibition (GI) [38]: inactive | growth inhibition (GI) [39]: inactive | growth inhibition (GI) [40]: inactive | growth inhibition (GI) [41]: inactive | growth inhibition (GI) [42]: inactive | growth inhibition (GI) [43]: inactive | growth inhibition (GI) [44]: inactive | growth inhibition (GI) [45]: inactive | growth inhibition (GI) [46]: inactive | growth inhibition (GI) [47]: inactive | growth inhibition (GI) [48]: inactive | growth inhibition (GI) [49]: inactive | growth inhibition (GI) [50]: inactive | growth inhibition (GI) [51]: inactive | growth inhibition (GI) [52]: inactive | growth inhibition (GI) [53]: inactive | growth inhibition (GI) [54]: inactive | growth inhibition (GI) [55]: inactive | growth inhibition (GI) [56]: inactive | growth inhibition (GI) [57]: inactive | growth inhibition (GI) [58]: inactive | growth inhibition (GI) [59]: inactive | growth inhibition (GI) [60]: inactive
